Measured values as given in patent US12077503B2, “Substituted cyclic amides and their use as herbicides” (FMC CORPORATION, priority 2015, dated 2024).

Tests used:
Assay type in all cases: in vivo
Kochia (Kochia scoparia) [1] = experiment: Test A postemergence; conditions: Bassia scoparia, post-emergence, 240 h, Postemergence, read-out: Plant response rating, Kochia
Summary of the method: (§1)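 Seeds sprayed preemergence with a directed soil spray, or plants at 2 to 10 cm height and one- to two-leaf stage sprayed postemergence, with test chemicals in a non-phytotoxic solvent mixture containing surfactant, in loam soil–sand blend. Injury rated visually against untreated controls after about 10 d in greenhouse, 0 (no effect) to 100 (complete control).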

[2] = tested on: Galium (catchweed bedstraw, Galium aparine); experiment: Test A postemergence; conditions: Galium, post-emergence, 240 h, Postemergence, read-out: Plant response rating, Galium
Summary of the method: as §1

[3] = tested on: giant foxtail (Setaria faberii); experiment: Test A postemergence; conditions: Setaria faberi, post-emergence, 240 h, Postemergence, read-out: Plant response rating, Foxtail, Giant
Summary of the method: as §1

[4] = tested on: wheat (Triticum aestivum); experiment: Test A postemergence; conditions: Triticum aestivum, post-emergence, 240 h, Postemergence, read-out: Plant response rating, Wheat
Summary of the method: as §1

[5] = tested on: pigweed (Amaranthus retroflexus); experiment: Test A postemergence; conditions: Amaranthus retroflexus, post-emergence, 240 h, Postemergence, read-out: Plant response rating, Pigweed
Summary of the method: as §1

[6] = tested on: ryegrass, Italian (Italian ryegrass, Lolium multiflorum); experiment: Test A preemergence; conditions: Lolium multiflorum, pre-emergence, 240 h, 0 to 100 scale (0 no effect, 100 complete control), read-out: Plant response rating, Ryegrass, Italian
Summary of the method: as §1

Kochia (Kochia scoparia) [7] = experiment: Test A preemergence; conditions: Bassia scoparia, pre-emergence, 240 h, 0 to 100 scale (0 no effect, 100 complete control), read-out: Plant response rating, Kochia
Summary of the method: as §1

[8] = tested on: ragweed (common ragweed, Ambrosia elatior); experiment: Test A preemergence; conditions: Ambrosia artemisiifolia, pre-emergence, 240 h, 0 to 100 scale (0 no effect, 100 complete control), read-out: Plant response rating, Ragweed
Summary of the method: as §1

[9] = tested on: giant foxtail (Setaria faberii); experiment: Test A preemergence; conditions: Setaria faberi, pre-emergence, 240 h, 0 to 100 scale (0 no effect, 100 complete control), read-out: Plant response rating, Foxtail, Giant
Summary of the method: as §1

[10] = tested on: barnyardgrass (Echinochloa crus-galli); experiment: Test A preemergence; conditions: Echinochloa crus-galli, pre-emergence, 240 h, 0 to 100 scale (0 no effect, 100 complete control), read-out: Plant response rating, Barnyardgrass
Summary of the method: as §1

[11] = tested on: pigweed (Amaranthus retroflexus); experiment: Test A preemergence; conditions: Amaranthus retroflexus, pre-emergence, 240 h, 0 to 100 scale (0 no effect, 100 complete control), read-out: Plant response rating, Pigweed
[12] = tested on: sedge, umbrella (small-flower umbrella sedge, Cyperus difformis); experiment: Test B flooded paddy test; conditions: Cyperus difformis, 360 h, Flood, 250 g ai/ha; visually evaluated after 13 to 15 d; read-out: Plant response rating, Sedge, Umbrella (0 to 100 scale where 0 is no effect and 100 is complete control)
Summary of the method: (§2)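 Flooding to 3 cm over soil accompanied treatment, which consisted of adding compound to the standing water around 2-leaf plants; depth was then maintained. Visual assessment versus controls followed at 13 to 15 d (scale 0–100, 0 meaning no effect).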

[13] = tested on: ducksalad (Heteranthera limosa); experiment: Test B flooded paddy test; conditions: Heteranthera limosa, 360 h, Flood, 250 g ai/ha; visually evaluated after 13 to 15 d; read-out: Plant response rating, Ducksalad (0 to 100 scale where 0 is no effect and 100 is complete control)
Summary of the method: as §2

[14] = tested on: barnyardgrass (Echinochloa crus-galli); experiment: Test B flooded paddy test; conditions: Echinochloa crus-galli, 360 h, Flood, 250 g ai/ha; visually evaluated after 13 to 15 d; read-out: Plant response rating, Barnyardgrass (0 to 100 scale where 0 is no effect and 100 is complete control)
Summary of the method: as §2

rice (Oryra sativa) = experiment: Test B flooded paddy test; conditions: Oryza sativa, 360 h, Flood, 250 g ai/ha; visually evaluated after 13 to 15 d; read-out: Plant response rating, Rice (0 to 100 scale where 0 is no effect and 100 is complete control)
Summary of the method: as §2

[15] = 125 g ai/ha, visual injury after approx. 10 d, 0 to 100 scale, 0 no effect, 100 complete control
[16] = 500 g ai/ha, visual injury, 0 to 100 scale (0 no effect, 100 complete control), approx. 10 d

## CN1CC[C@H](c2cccc(C(F)(F)F)c2)[C@@H](C(=O)Nc2ccc(F)c(F)c2F)C1=O [Compound 1395]
Kochia (Kochia scoparia) [1]; [15]
  pest or weed control at 125 g/ha: 0%
Kochia (Kochia scoparia) [1]; [16]
  pest or weed control at 500 g/ha: 0%
[2]; [15]
  pest or weed control at 125 g/ha: 0%
[2]; [16]
  pest or weed control at 500 g/ha: 0%
[3]; [15]
  pest or weed control at 125 g/ha: 90%
[3]; [16]
  pest or weed control at 500 g/ha: 90%
[4]; [15]
  plant injury at 125 g/ha: 20%
[4]; [16]
  plant injury at 500 g/ha: 40%
[5]; [15]
  pest or weed control at 125 g/ha: 0%
[5]; [16]
  pest or weed control at 500 g/ha: 0%
[6]; 500 g ai/ha, preemergence
  pest or weed control at 500 g/ha: 40%
[6]; Preemergence, 125 g ai/ha
  pest or weed control at 125 g/ha: 50%
Kochia (Kochia scoparia) [7]; 500 g ai/ha, preemergence
  pest or weed control at 500 g/ha: 0%
Kochia (Kochia scoparia) [7]; Preemergence, 125 g ai/ha
  pest or weed control at 125 g/ha: 0%
[8]; 500 g ai/ha, preemergence
  pest or weed control at 500 g/ha: 0%
[8]; Preemergence, 125 g ai/ha
  pest or weed control at 125 g/ha: 0%
[9]; 500 g ai/ha, preemergence
  pest or weed control at 500 g/ha: 90%
[9]; Preemergence, 125 g ai/ha
  pest or weed control at 125 g/ha: 90%
[10]; 500 g ai/ha, preemergence
  pest or weed control at 500 g/ha: 90%
[10]; Preemergence, 125 g ai/ha
  pest or weed control at 125 g/ha: 90%
[11]; 500 g ai/ha, preemergence
  pest or weed control at 500 g/ha: 0%
[11]; Preemergence, 125 g ai/ha
  pest or weed control at 125 g/ha: 0%
[12]
  pest or weed control at 250 g/ha: 0%
[13]
  pest or weed control at 250 g/ha: 80%
[14]
  pest or weed control at 250 g/ha: 90%
Rice (Oryra sativa)
  pest or weed control at 250 g/ha: 10%
